Source: patent publication US10259811B2, “Tank-binding kinase inhibitor compounds” (Gilead Sciences, Inc., priority 2014, dated 2019)

What was measured:
[1] = target: IKKε (Homo sapiens (Human), UniProt Q14164); assay: TR-FRET enzymatic assay, phosphorylation of biotinylated serine/threonine peptide substrate (IKKε); format: biochemical; details: full length recombinant IKKε at 0.3 nM, 2×Km ATP (40-80 μM), 1 μM peptide, 240 minutes at 25° C.; geometric mean of minimum four determinations
Excerpt: Biological Assay for TBK1 and IKKε:

[2] = target: TBK1 (Homo sapiens (Human), UniProt Q9UHD2); assay: TR-FRET enzymatic assay, phosphorylation of biotinylated serine/threonine peptide substrate (TBK1); details: read-out: TBK1-IC50; full length recombinant TBK1, 2×Km ATP (40-80 μM), 1 μM peptide, 240 minutes at 25° C.; geometric mean of minimum four determinations
Sequence of TBK1 (Q9UHD2 whole entry): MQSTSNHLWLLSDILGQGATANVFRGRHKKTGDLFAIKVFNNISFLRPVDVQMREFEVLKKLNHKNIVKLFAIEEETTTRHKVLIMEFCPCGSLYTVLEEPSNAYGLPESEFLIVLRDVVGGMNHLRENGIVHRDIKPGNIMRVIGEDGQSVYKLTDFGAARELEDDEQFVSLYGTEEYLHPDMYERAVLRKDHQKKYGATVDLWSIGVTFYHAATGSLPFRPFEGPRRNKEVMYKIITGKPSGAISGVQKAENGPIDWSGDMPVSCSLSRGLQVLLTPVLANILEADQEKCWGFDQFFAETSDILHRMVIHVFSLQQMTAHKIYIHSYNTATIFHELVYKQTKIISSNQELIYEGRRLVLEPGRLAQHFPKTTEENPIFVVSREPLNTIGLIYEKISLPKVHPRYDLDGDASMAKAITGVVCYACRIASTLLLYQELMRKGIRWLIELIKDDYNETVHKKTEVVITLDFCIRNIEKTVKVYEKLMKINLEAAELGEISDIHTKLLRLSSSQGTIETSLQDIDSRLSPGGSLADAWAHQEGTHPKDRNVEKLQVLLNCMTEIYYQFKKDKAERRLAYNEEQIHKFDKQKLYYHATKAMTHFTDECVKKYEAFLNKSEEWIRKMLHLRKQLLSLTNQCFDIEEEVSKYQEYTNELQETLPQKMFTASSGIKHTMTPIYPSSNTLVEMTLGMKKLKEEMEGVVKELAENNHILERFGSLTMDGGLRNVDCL
Description: Enzymatic activity of IKKε and TBK1 was measured using a homogeneous time resolved fluorescence resonance energy transfer (TR-FRET) assay that monitors enzyme dependent phosphorylation of a biotinylated serine/threonine peptide substrate. […] TBK1 and IKKε were expressed and purified as full length recombinant proteins. Detection reagents for the assay were purchased from Cisbio. […] After an assay reaction time of 240 minutes at 25° C., reactions were terminated with EDTA.
Amount of phosphorylated peptide was determined by the addition of 125 nM streptavidin XL665 and europium cryptate labeled anti-phospho monoclonal antibody and the resulting TR-FRET signal was recorded on an Envision plate reader (Ex: 340 nm; Em: 615/665 nm; 100 μs delay and 200 μs read window). […] All IC50 values represent geometric mean values of a minimum of four determinations.

Sequence of IKKε (Q14164 whole entry): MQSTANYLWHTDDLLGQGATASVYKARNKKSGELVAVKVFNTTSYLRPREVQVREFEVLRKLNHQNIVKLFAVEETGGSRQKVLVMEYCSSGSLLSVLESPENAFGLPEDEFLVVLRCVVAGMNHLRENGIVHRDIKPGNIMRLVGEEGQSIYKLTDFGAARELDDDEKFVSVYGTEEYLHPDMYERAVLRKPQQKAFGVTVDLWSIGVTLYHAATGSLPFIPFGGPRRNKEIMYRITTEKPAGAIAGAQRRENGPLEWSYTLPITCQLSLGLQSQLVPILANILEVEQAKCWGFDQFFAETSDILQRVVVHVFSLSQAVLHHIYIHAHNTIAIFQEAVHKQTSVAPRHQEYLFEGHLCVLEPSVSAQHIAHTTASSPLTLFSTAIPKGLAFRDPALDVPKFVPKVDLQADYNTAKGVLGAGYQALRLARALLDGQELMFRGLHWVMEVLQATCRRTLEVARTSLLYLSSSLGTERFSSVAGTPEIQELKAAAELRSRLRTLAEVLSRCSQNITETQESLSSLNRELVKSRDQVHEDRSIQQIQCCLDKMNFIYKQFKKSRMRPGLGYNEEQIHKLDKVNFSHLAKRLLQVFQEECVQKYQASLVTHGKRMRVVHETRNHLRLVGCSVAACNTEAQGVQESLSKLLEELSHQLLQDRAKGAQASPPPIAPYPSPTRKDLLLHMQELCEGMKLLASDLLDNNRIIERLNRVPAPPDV

Row | Molecule | IC50 [1] [nM] | IC50 [2] [nM]
1 | 5-(6-(1,4-dioxaspiro[4.5]dec-7-en-8-yl)-7H-pyrrolo[2,3-d]pyrimidin-4-yl)-2-((1-(2-hydroxyacetyl)piperidin-4-yl)oxy)benzonitrile [Example 175] | 5.84 | 
2 | N#Cc1cc(-c2ncnc3[nH]c(-c4ccc(N5CCOCC5)c(F)c4)nc23)ccc1OC1CCN(C(=O)CO)CC1 [Example 241, 5-(8-(3-fluoro-4-morpholinophenyl)-9H-purin-6-yl)-2-((1-(2-hydroxyacetyl)piperidin-4-yl)oxy)benzonitrile] | 1.3 | 2.64
3 | 5-(6-(4-(4-(2,2-difluoroethyl)piperazin-1-yl)phenyl)-7H-pyrrolo[2,3-d]pyrimidin-4-yl)-2-(piperidin-4-yloxy)benzonitrile [Example 265] | 58.7 | 16.2
4 | 5-(6-(4-(4-(2,2-difluoroethyl)piperazin-1-yl)phenyl)-7H-pyrrolo[2,3-d]pyrimidin-4-yl)-2-((1-(2-hydroxyacetyl)piperidin-4-yl)oxy)benzonitrile [Example 264] |  | 0.91
5 | Cc1nc(-c2ccc(OC3CCOCC3)c(C#N)c2)c2nc(-c3ccc(N4CCOCC4)cc3)[nH]c2n1 [Example 214, 5-(2-methyl-8-(4-morpholinophenyl)-9H-purin-6-yl)-2-((tetrahydro-2H-pyran-4-yl)oxy)benzonitrile] | > 1000 | > 1000
